The target of data set [1] is T1, P-gp (MDR1 expressing LLC-PK1 cells) (Homo sapiens, UniProt P08183).
T1 construct: host or cells: LLC-PK1 (porcine kidney) cells
Briefly: P-gp substrate test. In kind it is in vitro ADME. The conditions noted are these: MDR1 expressing LLC-PK1 cells vs parent LLC-PK1 cells. The method, then:
1. MDR1 expressing LLC-PK1 cells and its parent cells were routinely cultured in Medium A (Medium 199 (Invitrogen) supplemented with 10% FBS (Invitrogen), gentamycin (0.05 mg/mL, Invitrogen) and hygromycin B (100 μg/mL, Invitrogen)) at 37° C. under 5% CO2/95% 02 gasses. For the transport experiments, these cells were seeded on Transwell (Registered trademark) insert (96-well, pore size: 0.4 μm, Coaster) at a density of 1.4×10^4 cells/insert and added Medium B (Medium 199 supplemented with 10% FBS and gentamycin at 0.05 mg/mL) to the feeder tray. These cells were incubated in a CO2 incubator (5% CO2/95% 02 gasses, 37° C.) and replace apical and basolateral culture medium every 48-72 hr after seeding. These cells were used between 4 and 6 days after seeding. 2. The medium in the culture insert seeded with MDR1 expressing cells or parent cells were removed by aspiration and rinsed by HBSS. The apical side (140 μL) or basolateral side (175 μL) was replaced with transport buffer containing reference substrates and the present invention and then an aliquot (50 μL) of transport buffer in the donor side was collected to estimate initial concentration of reference substrate and the present invention. After incubation for designed time at 37° C., an aliquot (50 μL) of transport buffer in the donor and receiver side were collected. Assay was performed by duplicate or triplicate. 3. Reference substrate and the present invention in the aliquot was quantified by LC/MS/MS.
Permeated amounts across monolayers of MDR1 expressing and parent cells were determined, and permeation coefficients (Pe) were calculated using Excel 2003 from the following equitation:
Pe (cm/sec)=Permeated amount (pmol)/area of cell membrane (cm^2)/initial concentration (nM)/incubation time (sec) Where, permeated amount was calculated from permeation concentration (nM, concentration of the receiver side) of the substance after incubation for the defined time (sec) multiplied by volume. (mL) and area of cell membrane was used 0.1433 (cm2). The efflux ratio was calculated using the following equation:
Efflux Ratio=Basolateral-to-Apical Pe/Apical-to-Basolateral Pe
The net flux was calculated using the following equation:
Net flux=Efflux Ratio in MDR1 expressing cells/Efflux Ratio in parent cells

Data set [2] deals with T2, recombinant BACE2 protein (Homo sapiens, UniProt Q9Y5Z0).
T2 construct: recombinant BACE2 protein in a final concentration of 0.4 μg/mL
T2 sequence (Q9Y5Z0 63-518): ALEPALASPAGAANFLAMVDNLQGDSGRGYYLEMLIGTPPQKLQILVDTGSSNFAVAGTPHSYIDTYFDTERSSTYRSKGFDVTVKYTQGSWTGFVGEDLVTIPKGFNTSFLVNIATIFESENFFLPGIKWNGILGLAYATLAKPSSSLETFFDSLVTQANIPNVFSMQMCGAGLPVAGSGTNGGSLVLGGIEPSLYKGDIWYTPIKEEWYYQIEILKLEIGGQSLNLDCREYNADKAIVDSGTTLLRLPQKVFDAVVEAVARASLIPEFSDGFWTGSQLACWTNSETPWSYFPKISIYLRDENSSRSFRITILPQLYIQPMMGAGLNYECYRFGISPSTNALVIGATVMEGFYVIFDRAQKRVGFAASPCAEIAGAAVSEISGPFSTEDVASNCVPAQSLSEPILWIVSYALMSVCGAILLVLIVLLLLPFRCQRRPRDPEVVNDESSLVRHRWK
Nature of the data set: BACE2 biochemical FRET based assay. The conditions noted are these: pH 5.0, 450 min at room temperature. From the text: This assay is a Fluorescence Resonance Energy Transfer Assay (FRET) based assay. The substrate for this assay contains the ‘Swedish’ Lys-Met/Asn-Leu mutation of the amyloid precursor protein (APP) beta-secretase cleavage site. This substrate also contains two fluorophores: (7-methoxycoumarin-4-yl) acetic acid (Mca) is a fluorescent donor with excitation wavelength at 320 nm and emission at 405 nm and 2,4-dinitrophenol (Dnp) is a proprietary quencher acceptor. […] Upon cleavage by the beta-secretase, the fluorophore Mca is separated from the quenching group Dnp, restoring the full fluorescence yield of the donor. The increase in fluorescence is linearly related to the rate of proteolysis.
Briefly in a 384-well format recombinant BACE2 protein in a final concentration of 0.4 μg/mL was incubated for 450 minutes at room temperature with 10 μM substrate in incubation buffer (final concentrations: 33.3 mM Citrate buffer pH 5.0, 0.033% PEG, 2% DMSO) in the absence or presence of compound. Next the amount of proteolysis was directly measured by fluorescence measurement at T=0 and T=450 (excitation at 320 nm and emission at 405 nm). Results were expressed in RFU (Relative Fluorescence Units), as difference between T450 and T0.
A best-fit curve was fitted by a minimum sum of squares method to the plot of % Controlmin versus compound concentration. From this an IC50 value (inhibitory concentration causing 50% inhibition of activity) can be obtained.

Data set [3] deals with T3, human ether-a-go-go related gene (hERG) channel (Homo sapiens, UniProt Q12809).
T3 construct: expressed in transfected cells; host or cells: CHO cells
T3 sequence (Q12809 whole entry): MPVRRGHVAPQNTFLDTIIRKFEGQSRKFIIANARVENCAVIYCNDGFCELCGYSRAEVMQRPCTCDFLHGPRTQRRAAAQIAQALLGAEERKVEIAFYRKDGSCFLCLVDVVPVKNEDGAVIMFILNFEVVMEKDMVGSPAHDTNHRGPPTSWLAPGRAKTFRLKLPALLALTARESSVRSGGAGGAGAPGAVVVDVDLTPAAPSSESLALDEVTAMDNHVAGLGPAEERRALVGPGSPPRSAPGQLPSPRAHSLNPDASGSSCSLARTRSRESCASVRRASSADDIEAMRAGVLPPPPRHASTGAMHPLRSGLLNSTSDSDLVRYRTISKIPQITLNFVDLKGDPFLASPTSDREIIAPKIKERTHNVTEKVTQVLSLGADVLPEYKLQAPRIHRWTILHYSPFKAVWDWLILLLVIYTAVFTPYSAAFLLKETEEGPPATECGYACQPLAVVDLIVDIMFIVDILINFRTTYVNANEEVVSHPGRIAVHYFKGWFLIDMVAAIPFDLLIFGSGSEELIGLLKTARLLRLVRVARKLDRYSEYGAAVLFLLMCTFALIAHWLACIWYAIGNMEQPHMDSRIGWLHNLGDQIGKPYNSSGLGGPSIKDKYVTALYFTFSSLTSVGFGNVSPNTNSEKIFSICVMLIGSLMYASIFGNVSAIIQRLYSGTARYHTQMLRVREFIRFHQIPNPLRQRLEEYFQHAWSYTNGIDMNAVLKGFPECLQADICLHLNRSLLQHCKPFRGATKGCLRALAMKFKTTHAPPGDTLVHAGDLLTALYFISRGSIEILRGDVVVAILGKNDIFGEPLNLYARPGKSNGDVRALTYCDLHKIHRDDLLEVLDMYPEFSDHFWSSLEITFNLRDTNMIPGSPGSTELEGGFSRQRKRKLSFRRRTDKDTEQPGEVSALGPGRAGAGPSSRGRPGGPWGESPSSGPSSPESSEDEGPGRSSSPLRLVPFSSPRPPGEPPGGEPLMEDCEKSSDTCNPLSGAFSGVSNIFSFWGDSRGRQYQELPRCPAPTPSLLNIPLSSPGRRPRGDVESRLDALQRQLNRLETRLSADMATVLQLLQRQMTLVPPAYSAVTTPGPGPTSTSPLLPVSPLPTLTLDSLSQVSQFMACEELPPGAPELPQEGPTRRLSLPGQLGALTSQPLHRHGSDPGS
Nature of the data set: hERG test (whole cell patch clamp, QPatch). Type of data set: cell-based. The conditions noted are these: CHO cells expressing hERG, tail peak current. From the text: For the purpose of assessing risk of an electrocardiogram QT interval prolongation, effects on delayed rectifier K+ current (IKr), which plays an important role in the ventricular repolarization process of the compound of the present invention, was studied using CHO cells expressing human ether-a-go-go related gene (hERG) channel.
A cell was retained at a membrane potential of −80 mV by whole cell patch clamp method using an automated patch clamp system (QPatch; Sophion Bioscience A/S). After application of leak potential at −50 mV, IKr induced by depolarization pulse stimulation at +20 mV for 2 seconds and, further, repolarization pulse stimulation at −50 mV for 2 seconds was recorded.
After the generated current was stabilized, extracellular solution (NaCl: 145 mmol/L, KCl: 4 mmol/L, CaCl2:2 mmol/L MgCl2:1 mmol/L, 1 mmol/L, HEPES (4-(2-hydroxyethyl)-1-piperazineethanesulfonic acid: 10 mmol/L, glucose:10 mmol/L pH=7.4) in which the compound of the present invention have been dissolved at an objective concentration was applied to the cell under the room temperature condition for 10 minutes. From the recording IKr, an absolute value of the tail peak current was measured based on the current value at the resting membrane potential using an analysis software (QPatch assay software; Sophion Bioscience A/S). Further, the % inhibition relative to the tail peak current before application of the compound of the present invention was calculated, and compared with the vehicle-applied group (0.1% dimethyl sulfoxide solution) to assess influence of the compound of the present invention on IKr.

For orientation: pIC50 means the negative decadic logarithm of the IC50, by convention in mol/L.

pIC50: −log10 of the molar value.

T1 sequence (P08183 whole entry): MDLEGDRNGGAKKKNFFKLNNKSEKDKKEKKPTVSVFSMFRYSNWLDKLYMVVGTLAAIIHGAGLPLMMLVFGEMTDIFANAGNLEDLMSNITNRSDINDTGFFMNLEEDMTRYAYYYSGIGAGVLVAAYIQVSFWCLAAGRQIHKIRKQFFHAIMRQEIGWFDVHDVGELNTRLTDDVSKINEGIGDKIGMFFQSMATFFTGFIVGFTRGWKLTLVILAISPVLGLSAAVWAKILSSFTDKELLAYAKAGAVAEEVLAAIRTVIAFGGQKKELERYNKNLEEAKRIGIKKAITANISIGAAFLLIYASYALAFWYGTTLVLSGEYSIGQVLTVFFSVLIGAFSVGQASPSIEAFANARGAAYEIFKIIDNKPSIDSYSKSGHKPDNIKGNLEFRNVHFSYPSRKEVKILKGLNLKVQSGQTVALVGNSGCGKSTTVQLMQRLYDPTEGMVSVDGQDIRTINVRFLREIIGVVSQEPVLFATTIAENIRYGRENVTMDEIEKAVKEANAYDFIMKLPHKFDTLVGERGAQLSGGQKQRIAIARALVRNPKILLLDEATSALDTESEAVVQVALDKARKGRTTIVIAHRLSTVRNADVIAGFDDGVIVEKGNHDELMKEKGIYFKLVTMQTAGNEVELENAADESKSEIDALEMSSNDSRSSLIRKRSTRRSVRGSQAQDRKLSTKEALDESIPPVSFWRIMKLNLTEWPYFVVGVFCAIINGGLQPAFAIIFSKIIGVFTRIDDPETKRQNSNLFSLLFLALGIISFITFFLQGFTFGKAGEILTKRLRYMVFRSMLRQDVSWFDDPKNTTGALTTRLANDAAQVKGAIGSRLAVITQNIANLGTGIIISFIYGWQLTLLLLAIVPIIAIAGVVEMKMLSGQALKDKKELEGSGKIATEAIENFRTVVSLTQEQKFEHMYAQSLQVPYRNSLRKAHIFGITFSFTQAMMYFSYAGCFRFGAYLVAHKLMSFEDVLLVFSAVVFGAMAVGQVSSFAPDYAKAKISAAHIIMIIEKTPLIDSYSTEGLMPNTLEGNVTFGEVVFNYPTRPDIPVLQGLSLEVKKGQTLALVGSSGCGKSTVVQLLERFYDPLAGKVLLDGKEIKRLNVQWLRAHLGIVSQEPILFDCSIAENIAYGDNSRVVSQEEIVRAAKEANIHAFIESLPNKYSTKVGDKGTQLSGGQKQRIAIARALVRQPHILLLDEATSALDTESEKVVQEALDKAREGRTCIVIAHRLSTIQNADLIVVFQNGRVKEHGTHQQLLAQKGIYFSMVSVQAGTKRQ

In the case of `C[C@@H]1OC[C@H]2[C@@H]1OC(N)=N[C@]2(CF)c1cc(NC(=O)c2cnc(OCF)cn2)ccc1F` [Compound I-082], in data set [1], the “P-gp ER ratio” value came to 3.6. Besides, in data set [2], the pIC50 is 6.51. Besides, the “hERG inhibition (%) at 3 μM” value in data set [3] is 6.7%.

On to `NC1=N[C@](CF)(c2cc(NC(=O)c3cnc(OCF)cn3)ccc2F)[C@H]2[C@H](CC(F)F)OC[C@H]2O1` [Compound I-116], for which the “P-gp ER ratio” value in data set [1] amounted to 5.2. The negative-log IC50 (pIC50) in data set [2] was 6.41. For the same compound, the “hERG inhibition (%) at 3 μM” value in data set [3] amounted to 33.9%.

The values are drawn from patent US20210261569A1, “FUSED HETEROCYCLIC DERIVATIVES HAVING SELECTIVE BACE1 INHIBITORY ACTIVITY” (Shionogi & Co., Ltd., priority 2018, published 2021).
